Data published in US12173089B2, “Inhibition of pulmonary fibrosis with nutlin-3A and peptides” (BOARD OF REGENTS, THE UNIVERSITY OF TEXAS SYSTEM, priority 2013, dated 2024).

What was measured:
FL-fibroblasts = test: Proliferation of cultured FL-fibroblasts (cell count); type: cell-based, human; settings: cells counted after 3 d
Procedure: FIGS. 8A-8C. Role of p53-fibrinolytic system cross-talk in nutlin-3a (NTL) or CSP-4-mediated inhibition of col-I expression in FL(IPF)-fibroblasts. (FIG. 8A) FL-fibroblasts were exposed to PBS, nutlin-3a (10 uM), CSP-4 (10 nM) or control peptide (CP) for 48 h. The cell lysates were immunoblotted for the expression of Col-I, PAI-1, p53, uPA and β-actin. (FIG. 8B) FL-fibroblasts cultured in 12 well plates in DMEM media were exposed to vehicle (PBS) or nutlin-3a, CSP-4 or CP. After 3 d, cells were detached and counted. (FIG. 8C) FL-fibroblasts were transduced with empty adenovirus vector alone (Ad-EV) or Ad-vector expressing p53 (Ad-p53), PAI-1 (Ad-PAI-1) or caveolin-1 (Ad-Cav-1). After 48 h, cell lysates were immunoblotted for Col-I, p53, PAI-1, uPA and β-actin.
FL-fibroblasts were exposed to PBS (control), nutlin-3a (10 μM), CSP-4 (10 nM) or CP for 48 hrs. Lysates were immunoblotted for the expression of Col-I, PAI-1, p53, and uPA. Cultured FL- were exposed to vehicle (PBS) or nutlin-3a, CSP-4 or CP and counted to assess proliferation. […] The process involves induction of p53 and PAI-1 expression, and concurrent inhibition of uPA.

FL(IPF)-tissues = test: Ex vivo treatment of FL-lung tissues from IPF patients; type: cell-based, human; settings: for PAI-1 levels in fibroblasts isolated from IPF explants / Phosphorylation of Akt in fibroblasts from IPF explants / expression of PDGFR-β mRNA and protein in fibroblasts from IPF explants / miR-34a levels in fibroblasts isolated from IPF explants / p53 levels in fibroblasts isolated from IPF explants / uPA expression in fibroblasts isolated from IPF explants / uPAR expression in fibroblasts isolated from IPF explants / ECM synthetic rates of FL-lung explants: nutlin-3a 10 μM or CSP-4 10 nM, 3 to 7 days; for ECM synthetic rates of FL-lung explants: vs untreated, vehicle or CP; for production of ECM of fibroblasts from IPF explants / rate of proliferation of fibroblasts from IPF explants: vs FL-fibroblasts from untreated, vehicle- or CP-treated controls
Procedure: Freshly dissected FL-lung tissues from IPF patients are treated with nutlin-3a (10 μM) or CSP-4 (10 nM) for 3 to 7 days (see FIG. 13). Lung tissues are homogenized and tested for changes in ECM (hydroxyproline and desmosine). Controls include fibrotic lung (FL)-tissues from IPF patients treated with vehicle or control peptide, CP or naive lung tissues maintained in culture medium. Other controls include NL-tissues resected from histologically “normal” lungs. De-identified patient (“normal” and IPF) lungs that were not suitable for transplantation and donated for medical research are obtained through HAM (Edison, NJ) and the NDRI (Philadelphia, PA) and used for ex vivo studies. Fibroblasts are isolated from these tissues and analyzed for changes in p53, uPA, uPAR and PAI-1 expression, production of ECM and viability. Changes in rate of ECM synthesis are also measured. FL-tissue explants from patients with IPF have elevated synthesis of ECM when compared to expression levels in the slices of NL-tissues from control subjects. […] Phosphorylation of Akt and expression of PDGFR-β mRNA and protein also are reduced in fibroblasts from IPF explants treated with nutlin-3a or CSP-4.

BLM-treated mice = test: Established lung fibrosis in BLM-treated mice (CT scanning, lung function, trichrome staining, hydroxyproline, desmosine); type: in vivo; settings: for established lung fibrosis: WT mice, results reported herein and elsewhere
Procedure: FIGS. 10A-10D. Nutlin-3a (NTL) inhibits lung fibrosis in BLM-treated mice. Mice were exposed to BLM for 14 d to induce lung fibrosis. Saline treated mice were used as fibrosis controls. After 14 d, mice exposed to BLM were injected IV with either vehicle or nutlin-3 a (10 mg/kg body weight) (Zhang F et al. Drug Metab Dispos 39: 15-21, 2011) to determine whether nutlin-3 a inhibited established lung fibrosis. On day 21 after BLM injury, mice underwent CT scanning to assess the extent of fibrosis (FIG. 10A). One representative example is shown (n=9). (FIG. 10B) Lung compliance and resistance were measured in the same mice using the Flexivent system to assess improvement in lung function after nutlin-3 a treatment (n=9). (FIG. 10C) Lung sections were subjected to trichrome staining to assess lung architecture and collagen deposition as an indication of lung fibrosis. (FIG. 10D) Whole lung homogenates were analyzed for total collagen (hydroxyproline) and desmosine content as an independent assessment of changes in ECM.
FIGS. 11A-11D. CSP-4 inhibits established lung fibrosis and improves lung function. Mice were exposed to BLM to induce pulmonary fibrosis. After 14 d, the mice were injected IV with either vehicle or 1.5 mg/kg body weight of CSP-4 or control peptide (“CP”) of scrambled sequence. On d 21 after BLM injury, mice underwent CT scanning examine CSP-4 inhibition of established lung fibrosis (FIG. 11A). One representative example is shown (n=9). (FIG. 11B): Lung volumes were measured in the same mice (n=9) using quantitative CT renditions. (FIG. 11C): Lung sections were subjected to trichrome and H&E staining (not shown) to assess collagen deposition as an indicator of lung fibrosis. (FIG. 11D) Analysis of whole lung homogenates for total hydroxyproline content.
Mice exposed to BLM (or saline in controls) for 14 d to induce lung fibrosis were injected IV with nutlin-3a (10 mg/kg body weight) (Zhang et al, supra) or a vehicle control to determine and the effect on established lung fibrosis was examined. Fibrosis was evaluated by CT scanning and lung function (compliance and resistance) were measured using the Flexivent system. Lung sections were subjected to trichrome staining and H & E staining (the latter not shown) to assess lung architecture and collagen deposition as an indication of fibrosis. Finally, whole lung homogenates were analyzed for total collagen (hydroxyproline) and desmosine content (Bhandary Y P et al, Am J Physiol: Lung Cell Mol Physiol 302:L463-73, 2012; Bhandary Y P et al, Am J Pathol, 183: 131-43 2013) as an independent assessment of the ECM. […] Oral administration of Nutlin-3a 14 days after BLM injury likewise inhibited pulmonary fibrosis in mice.
Mice were exposed to BLM to induce pulmonary fibrosis. After 14 d, the mice were injected IV with either vehicle or 1.5 mg/kg body weight of CSP-4 (SEQ ID NO: 1) or control peptide (scrambled sequence of same amino acids; CP, SEQ ID NO:5) at 1.5 mg/kg body weight or vehicle was injected IV into mice exposed to BLM 14 days earlier. One week later, mice were tested by CT scanning to evaluate lung fibrosis. Lung volume was measured in the same mice using quantitative CT renditions.

Compound	proliferation of FL-fibroblasts (FL-fibroblasts)	PAI-1 levels in fibroblasts isolated from IPF explants (FL(IPF)-tissues)	Phosphorylation of Akt in fibroblasts from IPF explants (FL(IPF)-tissues)	expression of PDGFR-β mRNA and protein in fibroblasts from IPF explants (FL(IPF)-tissues)	miR-34a levels in fibroblasts isolated from IPF explants (FL(IPF)-tissues)	p53 levels in fibroblasts isolated from IPF explants (FL(IPF)-tissues)	uPA expression in fibroblasts isolated from IPF explants (FL(IPF)-tissues)	uPAR expression in fibroblasts isolated from IPF explants (FL(IPF)-tissues)	ECM synthetic rates of FL-lung explants (FL(IPF)-tissues)	production of ECM of fibroblasts from IPF explants (FL(IPF)-tissues)	rate of proliferation of fibroblasts from IPF explants (FL(IPF)-tissues)	effect on established lung fibrosis (CT, compliance and resistance, trichrome, hydroxyproline, desmosine) (BLM-treated mice; IV 10 mg/kg body weight 14 d after BLM, read on day 21)	established lung fibrosis (BLM-treated mice; IV or oral administration beginning 14 d after BLM)	pulmonary fibrosis (BLM-treated mice; oral administration 14 days after BLM injury)	established lung fibrosis (BLM-treated mice; IP or IV administration beginning 14 d after BLM)	BLM-induced lung fibrosis (CT, lung volume, trichrome and H&E, hydroxyproline) (BLM-treated mice; IV 1.5 mg/kg body weight 14 d after BLM, read one week later)
COc1ccc(C2=NC(c3ccc(Cl)cc3)C(c3ccc(Cl)cc3)N2C(=O)N2CCNC(=O)C2)c(OC(C)C)c1 (stereo not drawn) [nutlin-3a, 4-2-4,5-dihydro-1H-imidazole-1-piperazin-2-one]	inhibited	elevated levels	reduced	reduced	elevated levels	elevated levels	reduced	reduced	significantly reduced	significantly lower	significantly lower	beneficial effect	mitigates	inhibited	–	–
FTTFTVT [CSP-4]	inhibited	elevated levels	reduced	reduced	elevated levels	elevated levels	reduced	reduced	significantly reduced	significantly lower	significantly lower	–	–	–	mitigates	inhibited
